Results on eight substances are retold here after patent US11471537B2, “Oligomer extended insulin-Fc conjugates” (Novo Nordisk A/S, priority 2017, dated 2022).

The target of one test is insulin receptor A (Homo sapiens, UniProt P06213). Put plainly: Insulin receptor affinity. The class given is binding. The note with it: relative to affinity of human insulin for insulin receptor A (100%).
The next test concerns Sprague-Dawley rats. Briefly: PD studies: blood glucose after subcutaneous dosing. The format is in vivo. To be noted: sc, dose 30 nmol/kg. As to the method: The pharmacodynamic effect of the Insulin Fc conjugates of the examples were investigated in normal male Sprague-Dawley rats weighing approx. 350 g at study start.
Animals had free access to food and water during the experiment period. They were dosed subcutaneously in the neck region with a dose of 30 nmol/kg (unless otherwise stated in the figures below). Blood samples for blood glucose and plasma insulin analysis were collected from the tongue veins up to 10 days post dosing. Blood glucose was measured using Biosen S Line (EKF).

The test system of another test is isolated rat adipocytes. Briefly: Insulin-stimulated lipogenesis. The class given is cell-based. The note with it: 1% HSA; relative to the activity of human insulin (100%). As to the method:
Insulin-stimulated lipogenesis was measured in isolated rat adipocytes in presence of 1% HSA as described in Moody A J, Stan M A, Stan M, Gliemann J. A Simple Free Fat Cell Bioassay for Insulin. Hormone And Metabolic Research. 1974; 6(1):12-6, see results in Table 6.

insulin receptor A, sequence (P06213 28-1370 isoform P06213-2 limits assumed): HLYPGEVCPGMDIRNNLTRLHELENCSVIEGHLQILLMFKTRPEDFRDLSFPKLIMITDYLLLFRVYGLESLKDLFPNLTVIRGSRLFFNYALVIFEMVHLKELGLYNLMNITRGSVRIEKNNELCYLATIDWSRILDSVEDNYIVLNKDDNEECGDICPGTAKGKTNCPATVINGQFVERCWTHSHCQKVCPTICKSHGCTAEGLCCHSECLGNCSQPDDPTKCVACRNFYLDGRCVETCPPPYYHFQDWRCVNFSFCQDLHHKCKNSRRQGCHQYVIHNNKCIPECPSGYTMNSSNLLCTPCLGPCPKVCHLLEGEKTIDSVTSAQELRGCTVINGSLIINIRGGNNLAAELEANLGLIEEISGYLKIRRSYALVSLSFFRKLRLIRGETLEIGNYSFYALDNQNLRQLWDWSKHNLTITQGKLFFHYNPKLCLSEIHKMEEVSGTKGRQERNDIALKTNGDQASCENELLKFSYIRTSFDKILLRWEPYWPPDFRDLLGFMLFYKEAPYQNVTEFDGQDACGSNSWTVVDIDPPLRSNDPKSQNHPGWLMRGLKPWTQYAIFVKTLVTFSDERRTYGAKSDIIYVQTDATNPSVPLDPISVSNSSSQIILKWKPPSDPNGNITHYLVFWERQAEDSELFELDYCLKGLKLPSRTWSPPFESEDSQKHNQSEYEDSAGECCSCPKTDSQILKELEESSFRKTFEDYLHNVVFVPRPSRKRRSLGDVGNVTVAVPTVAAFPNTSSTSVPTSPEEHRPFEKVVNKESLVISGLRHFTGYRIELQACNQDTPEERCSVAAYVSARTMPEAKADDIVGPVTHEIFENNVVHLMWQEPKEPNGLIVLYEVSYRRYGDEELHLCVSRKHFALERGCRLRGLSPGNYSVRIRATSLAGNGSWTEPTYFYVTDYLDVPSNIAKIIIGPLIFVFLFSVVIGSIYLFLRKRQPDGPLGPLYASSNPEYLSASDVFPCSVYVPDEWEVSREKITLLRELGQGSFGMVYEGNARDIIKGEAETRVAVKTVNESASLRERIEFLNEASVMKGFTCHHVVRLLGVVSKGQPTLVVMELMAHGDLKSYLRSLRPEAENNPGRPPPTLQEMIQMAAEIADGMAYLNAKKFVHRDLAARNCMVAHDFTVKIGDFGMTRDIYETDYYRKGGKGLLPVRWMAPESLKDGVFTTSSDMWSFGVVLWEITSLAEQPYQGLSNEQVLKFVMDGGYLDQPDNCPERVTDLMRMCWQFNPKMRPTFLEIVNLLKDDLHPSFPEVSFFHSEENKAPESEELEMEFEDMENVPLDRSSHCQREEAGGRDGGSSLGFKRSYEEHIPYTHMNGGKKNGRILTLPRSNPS
insulin receptor A, sequence (P06213 763-1382 partner limits assumed): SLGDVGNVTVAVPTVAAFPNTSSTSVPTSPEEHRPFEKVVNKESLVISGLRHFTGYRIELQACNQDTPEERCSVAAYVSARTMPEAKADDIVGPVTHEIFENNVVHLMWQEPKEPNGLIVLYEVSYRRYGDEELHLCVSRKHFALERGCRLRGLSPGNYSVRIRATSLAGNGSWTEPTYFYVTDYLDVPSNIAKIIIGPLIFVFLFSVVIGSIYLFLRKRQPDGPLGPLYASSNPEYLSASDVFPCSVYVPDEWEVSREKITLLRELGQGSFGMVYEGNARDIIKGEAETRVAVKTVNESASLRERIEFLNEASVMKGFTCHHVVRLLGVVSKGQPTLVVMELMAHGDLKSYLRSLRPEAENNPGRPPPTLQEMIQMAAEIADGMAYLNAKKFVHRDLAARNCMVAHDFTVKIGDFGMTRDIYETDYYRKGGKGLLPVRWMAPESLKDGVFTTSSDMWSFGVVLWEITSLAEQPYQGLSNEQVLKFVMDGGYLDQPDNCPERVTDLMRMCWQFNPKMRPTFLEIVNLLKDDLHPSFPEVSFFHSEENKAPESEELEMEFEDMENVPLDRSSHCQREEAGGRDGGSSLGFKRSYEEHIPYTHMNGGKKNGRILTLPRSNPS

For the substance “A14E, A21G, A22(GQEP)19, A98K^, A99P, B3Q, B25H, B29R, desB30 human insulin/(227A, 234A, 235K, 297E, 315Q, 384Q, des447 hIgG4-Fc(228-447))4-[bis[2-[(2-acetyl)amino]ethyl]amino]-4-oxo-butanoyl Conjugate [Example 5.2]”, the “Insulin receptor affinity [IC50 relative to HI (%)] Mean Value” at insulin receptor A was 6.10%. The Average blood glucose stood at 6.608 mM with Sprague-Dawley rats (time 0 days); 6.196 mM in the test with Sprague-Dawley rats (time 0.041667 days); 5.328 mM in the test on Sprague-Dawley rats (time 0.125 days); 4.48 mM in the test on Sprague-Dawley rats (time 0.291667 days); 2.7 mM with Sprague-Dawley rats (time 1 day); 2.66 mM in the test on Sprague-Dawley rats (time 2 days). In addition, the Average blood glucose is 3.08 mM in the test on Sprague-Dawley rats (time 3 days); 5.156 mM in the test with Sprague-Dawley rats (time 4 days); 6.232 mM in the test with Sprague-Dawley rats (time 6 days); 6.092 mM in the test with Sprague-Dawley rats (time 7 days); 5.972 mM in the test with Sprague-Dawley rats (time 8 days). Moreover, the “Lipogenesis in rat adipocytes [Potency (%)] Mean Value” in the test with isolated rat adipocytes worked out at 3.57%.
Consider “A14E, A21G, A22(GQAPGQAPGQEP)6-GQAP, A98K^, A99P, B3Q, B25H, B29R, desB30 human insulin/(227A, 234A, 235K hIgG4-Fc(228-447))4-[bis[2-[(2-acetyl)amino]ethyl]amino]-4-oxo-butanoyl Conjugate [Example 5.5]”, for which the “Insulin receptor affinity [IC50 relative to HI (%)] Mean Value” on insulin receptor A is 3.34%. The Average blood glucose turned out to be 5.266 mM in the test with Sprague-Dawley rats (time 0 days); 5.276 mM in the test with Sprague-Dawley rats (time 0.041667 days); 4.894 mM in the test on Sprague-Dawley rats (time 0.125 days); 4.422 mM in the test with Sprague-Dawley rats (time 0.208333 days); 4.358 mM in the test with Sprague-Dawley rats (time 0.291667 days); 3.106 mM with Sprague-Dawley rats (time 1 day). Further, the Average blood glucose in the test on Sprague-Dawley rats (time 2 days) was 2.33 mM; in the test with Sprague-Dawley rats (time 3 days), 2.786 mM; in the test on Sprague-Dawley rats (time 4 days) it was 4.764 mM; in the test on Sprague-Dawley rats (time 5 days), 5.842 mM; in the test with Sprague-Dawley rats (time 6 days), 6.016 mM; in the test with Sprague-Dawley rats (time 7 days), 5.76 mM. Besides, in the test with Sprague-Dawley rats (time 8 days), the Average blood glucose is listed as 5.794 mM. For the same substance, the “Lipogenesis in rat adipocytes [Potency (%)] Mean Value” with isolated rat adipocytes came out at 2.21%.
For “(A14A, A21G, A22(GQAP)18, A94G, A95Q, A96A, A97K^, A98P, B29R, desB30 human insulin)/(227A, 234A, 235K, 297E, 315Q, 384Q, des447 hIgG4-Fc(228-447))4-[bis[2-[(2-acetyl)amino]ethyl]amino]-4-oxo-butanoyl Conjugate [Example 5.25]”, the “Insulin receptor affinity [IC50 relative to HI (%)] Mean Value” on insulin receptor A came to 4.49%. Further, the Average blood glucose in the test with Sprague-Dawley rats (time 0 days) amounted to 5.724 mM; in the test with Sprague-Dawley rats (time 0.041667 days) it was 6.104 mM; in the test on Sprague-Dawley rats (time 0.125 days), 4.9 mM; in the test with Sprague-Dawley rats (time 0.291667 days) it was 4.032 mM; in the test with Sprague-Dawley rats (time 1 day), 3.28 mM; in the test on Sprague-Dawley rats (time 2 days) it was 3.864 mM. The Average blood glucose is 6.224 mM in the test with Sprague-Dawley rats (time 3 days); 5.976 mM in the test on Sprague-Dawley rats (time 4 days); 6.036 mM in the test with Sprague-Dawley rats (time 5 days); 6.496 mM with Sprague-Dawley rats (time 6 days); 6.14 mM in the test with Sprague-Dawley rats (time 7 days); 6.452 mM in the test on Sprague-Dawley rats (time 8 days). The Average blood glucose came out at 6.528 mM in the test on Sprague-Dawley rats (time 9 days) and 6.144 mM with Sprague-Dawley rats (time 10 days). In addition, the “Lipogenesis in rat adipocytes [Potency (%)] Mean Value” in the test on isolated rat adipocytes stood at 2.08%.
For the substance “(A14E, A21G, A22(GQEP)19, A98K^, A99P, B25H, B29R, desB30 human insulin)/(227A, 234A, 235K hIgG4-Fc(228-447))4-[bis[2-[(2-acetyl)amino]ethyl]amino]-4-oxo-butanoyl Conjugate [Example 5.1]”, at insulin receptor A, the “Insulin receptor affinity [IC50 relative to HI (%)] Mean Value” is 5.07%. The Average blood glucose is listed as 6.68 mM with Sprague-Dawley rats (time 0 days); 5.888 mM with Sprague-Dawley rats (time 0.041667 days); 4.988 mM with Sprague-Dawley rats (time 0.125 days); 3.752 mM in the test with Sprague-Dawley rats (time 0.291667 days); 2.524 mM in the test on Sprague-Dawley rats (time 1 day); 2.036 mM in the test with Sprague-Dawley rats (time 2 days). Besides, the Average blood glucose in the test with Sprague-Dawley rats (time 3 days) is on record as 2.964 mM; in the test on Sprague-Dawley rats (time 4 days), 3.244 mM; with Sprague-Dawley rats (time 6 days), 6.508 mM; with Sprague-Dawley rats (time 7 days), 6.18 mM; with Sprague-Dawley rats (time 8 days), 5.996 mM. Besides, in the test with isolated rat adipocytes, the “Lipogenesis in rat adipocytes [Potency (%)] Mean Value” was 6.69%.
Regarding “A14E, A21G, A22(GQEP)6, A46K^, A47P, B25H, B29R, desB30 human insulin/(227A, 234A, 235K hIgG4-Fc(228-447))4-[bis[2-[(2-acetyl)amino]ethyl]amino]-4-oxo-butanoyl Conjugate [Example 5.7]”, the “Insulin receptor affinity [IC50 relative to HI (%)] Mean Value” at insulin receptor A is listed as 2.43%. Moreover, the Average blood glucose in the test on Sprague-Dawley rats (time 0 days) was 5.918 mM; in the test on Sprague-Dawley rats (time 0.041667 days), 5.682 mM; with Sprague-Dawley rats (time 0.125 days), 4.502 mM; in the test with Sprague-Dawley rats (time 0.208333 days), 3.974 mM; in the test with Sprague-Dawley rats (time 0.291667 days) it was 3.428 mM; in the test on Sprague-Dawley rats (time 1 day) it was 2.758 mM. The Average blood glucose in the test with Sprague-Dawley rats (time 2 days) is 2.15 mM; with Sprague-Dawley rats (time 3 days), 2.3 mM; in the test on Sprague-Dawley rats (time 4 days) it was 2.81 mM; in the test with Sprague-Dawley rats (time 5 days) it was 4.404 mM; in the test on Sprague-Dawley rats (time 6 days), 6.702 mM; in the test with Sprague-Dawley rats (time 7 days) it was 6.518 mM. This substance also yielded an Average blood glucose in the test on Sprague-Dawley rats (time 8 days) of 6.33 mM. In addition, the “Lipogenesis in rat adipocytes [Potency (%)] Mean Value” in the test on isolated rat adipocytes was 1.88%.
Consider “A14E, A21G, A22(GQAPGQAPGQEP)6-GQAP, A98K^, A99P, B3Q, B25H, B29R, desB30 human insulin/(227A, 234A, 235K, 297E, 315Q, 3840, des447 hIgG4-Fc(228-447))4-[bis[2-[(2-acetyl)amino]ethyl]amino]-4-oxo-butanoyl Conjugate [Example 5.13]”, for which the “Insulin receptor affinity [IC50 relative to HI (%)] Mean Value” at insulin receptor A amounted to 5.55%. In addition, the Average blood glucose with Sprague-Dawley rats (time 0 days) is 6.384 mM; in the test with Sprague-Dawley rats (time 0.041667 days) it was 5.976 mM; with Sprague-Dawley rats (time 0.125 days), 4.892 mM; with Sprague-Dawley rats (time 0.291667 days), 4.184 mM; in the test on Sprague-Dawley rats (time 1 day) it was 2.428 mM; in the test on Sprague-Dawley rats (time 2 days) it was 2.452 mM. In addition, the Average blood glucose is 3.308 mM in the test with Sprague-Dawley rats (time 3 days); 5.676 mM in the test with Sprague-Dawley rats (time 4 days); 5.908 mM in the test on Sprague-Dawley rats (time 6 days); 5.812 mM in the test with Sprague-Dawley rats (time 7 days); 5.492 mM with Sprague-Dawley rats (time 8 days). In addition, the “Lipogenesis in rat adipocytes [Potency (%)] Mean Value” in the test with isolated rat adipocytes is reported as 3.07%.
As for “A14E, A21G, A22(GQAPGQAPGQEP)6-GQAP, A98K^, A99P, B3Q, B25H, B29R, desB30 human insulin/(227A, 234A, 235K, 297E, 315Q, 384Q, des447 hIgG4-Fc(228-447))4-[bis[2-[(2-acetyl)amino]ethyl]carbamoylamino]butanoyl Conjugate [Example 5.24]”, the “Insulin receptor affinity [IC50 relative to HI (%)] Mean Value” at insulin receptor A is recorded as 4.60%. In addition, the Average blood glucose with Sprague-Dawley rats (time 0 days) is 5.604 mM; with Sprague-Dawley rats (time 0.041667 days) it was 5.98 mM; with Sprague-Dawley rats (time 0.125 days) it was 5.172 mM; with Sprague-Dawley rats (time 0.291667 days) it was 4.164 mM; in the test on Sprague-Dawley rats (time 1 day), 2.924 mM; in the test with Sprague-Dawley rats (time 2 days) it was 3.128 mM. Moreover, the Average blood glucose in the test with Sprague-Dawley rats (time 3 days) came to 3.352 mM; in the test on Sprague-Dawley rats (time 4 days) it was 6.272 mM; in the test with Sprague-Dawley rats (time 5 days) it was 5.788 mM; with Sprague-Dawley rats (time 6 days), 5.824 mM; with Sprague-Dawley rats (time 7 days), 6.092 mM; in the test with Sprague-Dawley rats (time 8 days), 6.016 mM. In addition, the Average blood glucose with Sprague-Dawley rats (time 9 days) was determined as 5.872 mM; with Sprague-Dawley rats (time 10 days), 6.072 mM. Further, the “Lipogenesis in rat adipocytes [Potency (%)] Mean Value” with isolated rat adipocytes was 3.83%.
On to “A14E, A21G, A22(GQEP)12, A70K^, A71P, B25H, B29R, desB30 human insulin/(227A, 234A, 235K hIgG4-Fc(228-447))4-[bis[2-[(2-acetyl)amino]ethyl]amino]-4-oxo-butanoyl Conjugate [Example 5.8]”, for which the “Insulin receptor affinity [IC50 relative to HI (%)] Mean Value” at insulin receptor A amounted to 10.58%. The Average blood glucose in the test with Sprague-Dawley rats (time 0 days) stood at 5.538 mM; with Sprague-Dawley rats (time 0.041667 days), 5.44 mM; with Sprague-Dawley rats (time 0.125 days), 4.488 mM; in the test on Sprague-Dawley rats (time 0.208333 days), 3.55 mM; with Sprague-Dawley rats (time 0.291667 days) it was 3.238 mM; in the test on Sprague-Dawley rats (time 1 day), 2.978 mM. For the same substance, the Average blood glucose in the test with Sprague-Dawley rats (time 2 days) was 1.844 mM; in the test with Sprague-Dawley rats (time 3 days), 2.545 mM; with Sprague-Dawley rats (time 4 days), 3.325 mM; in the test on Sprague-Dawley rats (time 5 days), 5.39 mM; in the test on Sprague-Dawley rats (time 6 days), 6.8425 mM; in the test on Sprague-Dawley rats (time 7 days), 6.4875 mM. Besides, the Average blood glucose in the test with Sprague-Dawley rats (time 8 days) amounted to 6.1875 mM. The “Lipogenesis in rat adipocytes [Potency (%)] Mean Value” with isolated rat adipocytes was found to be 5.31%.
